# According to ChEMBL document CHEMBL1156057 (Bioorg Med Chem Lett, 2009):
# Target: T1, hERG (KCNH2) (Homo sapiens, UniProt Q12809)
# Test: Displacement of [3H]dofetilide from human ERG expressed in HEK293 cells at 30 uM
# Format: cell-based
# Conditions: HEK293 cells that express hERG, probe [3H]dofetilide, read-out: Activity
# T1 sequence (Q12809 whole entry): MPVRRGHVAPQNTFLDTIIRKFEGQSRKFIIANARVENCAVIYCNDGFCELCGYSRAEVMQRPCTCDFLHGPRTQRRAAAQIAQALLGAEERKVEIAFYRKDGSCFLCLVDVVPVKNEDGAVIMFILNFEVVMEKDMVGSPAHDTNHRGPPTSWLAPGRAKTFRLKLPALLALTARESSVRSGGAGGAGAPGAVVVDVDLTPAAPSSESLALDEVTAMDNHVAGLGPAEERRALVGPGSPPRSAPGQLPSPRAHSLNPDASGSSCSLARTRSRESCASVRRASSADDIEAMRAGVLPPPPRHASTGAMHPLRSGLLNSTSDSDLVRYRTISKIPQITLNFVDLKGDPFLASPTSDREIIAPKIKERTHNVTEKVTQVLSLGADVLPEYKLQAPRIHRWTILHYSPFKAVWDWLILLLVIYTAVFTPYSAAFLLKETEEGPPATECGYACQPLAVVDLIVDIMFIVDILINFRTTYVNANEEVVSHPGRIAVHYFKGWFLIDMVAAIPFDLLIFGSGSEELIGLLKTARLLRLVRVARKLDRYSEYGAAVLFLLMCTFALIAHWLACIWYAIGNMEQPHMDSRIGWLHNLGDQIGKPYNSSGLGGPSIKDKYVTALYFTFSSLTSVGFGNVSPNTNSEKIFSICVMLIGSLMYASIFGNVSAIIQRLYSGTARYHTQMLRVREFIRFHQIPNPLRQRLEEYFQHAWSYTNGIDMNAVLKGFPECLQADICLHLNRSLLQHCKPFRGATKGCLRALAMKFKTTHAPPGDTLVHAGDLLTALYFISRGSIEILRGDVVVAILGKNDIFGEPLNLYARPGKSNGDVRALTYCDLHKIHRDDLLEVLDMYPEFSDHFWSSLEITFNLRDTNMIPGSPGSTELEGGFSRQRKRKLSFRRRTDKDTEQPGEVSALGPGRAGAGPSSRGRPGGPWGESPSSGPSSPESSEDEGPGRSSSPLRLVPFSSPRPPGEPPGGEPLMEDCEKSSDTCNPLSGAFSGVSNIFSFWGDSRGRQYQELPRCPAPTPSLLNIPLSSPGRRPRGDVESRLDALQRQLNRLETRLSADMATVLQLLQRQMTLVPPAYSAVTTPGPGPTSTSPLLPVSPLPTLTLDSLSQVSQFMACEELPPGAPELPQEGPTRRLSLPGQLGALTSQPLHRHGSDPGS
row,SMILES,inhibition at 30 µM [%]
1,CCc1nn(CCN)c(CC)c1Oc1cc(C#N)cc(C#N)c1,64

# Target: T1, hERG (KCNH2)
# Test: Displacement of [3H]dofetilide from human ERG expressed in HEK293 cells at 20 uM
# Format: cell-based
# Conditions: HEK293 cells that express hERG, probe [3H]dofetilide, read-out: Activity
row,SMILES,inhibition at 20 µM [%]
1,CCc1nn(CCN)c(CC)c1Oc1cc(F)cc(C#N)c1,84

# Target: T1, hERG (KCNH2)
# Test: Displacement of [3H]dofetilide from human ERG expressed in HEK293 cells at 60 uM
# Format: cell-based
# Conditions: HEK293 cells that express hERG, probe [3H]dofetilide, read-out: Activity
row,SMILES,inhibition at 60 µM [%]
1,CCc1nn(CCN)c(CC)c1Oc1cc(F)cc(C#N)c1,96

# Test system: not listed separately
# Test: Distribution coefficient, log D of the compound
# Format: physicochemical
# Conditions: octanol/water
row,SMILES,logD
1,CCc1nn(CCN)c(CC)c1Oc1cc(Cl)cc(C#N)c1,2
2,CCc1n[nH]c(CC)c1Oc1cc(C#N)cc(C#N)c1,2.8
3,CCc1nn(CCN)c(CC)c1Oc1cc(F)cc(C#N)c1,1.5
4,CCc1nn(CCO)c(CC)c1Oc1cc(C#N)cc(C#N)c1 [LERSIVIRINE],1.8
5,CCc1nn(CCN)c(CC)c1Oc1cccc(C#N)c1,1.2
6,CCc1nn(CCO)c(CC)c1Oc1cc(C)cc(C#N)c1,3.2
7,CCc1nn(CCN)c(CC)c1Oc1cc(C)cc(C#N)c1,1.5
8,CCc1nn(CCN)c(CC)c1Oc1cc(C#N)cc(C#N)c1,0.9

# Test system: Human immunodeficiency virus
# Test: Fold resistance, ratio of IC50 for HIV reverse transcriptase with P236L mutant to IC50 for HIV wild type reverse transcriptase
# Conditions: not given
row,SMILES,Ratio IC50
1,CCc1nn(CCN)c(CC)c1Oc1cc(C)cc(C#N)c1,1.8

# Test system: not listed separately
# Test: Fraction unbound in human liver microsomes
# Format: ADME, Microsome
# Conditions: not given
row,SMILES,fraction unbound
1,CCc1nn(CCN)c(CC)c1Oc1cccc(C#N)c1,0.5
2,CCc1nn(CCN)c(CC)c1Oc1cc(C)cc(C#N)c1,0.4

# Target: T1, hERG (KCNH2)
# Test: Displacement of [3H]dofetilide from human ERG expressed in HEK293 cells at 25 uM
# Format: cell-based
# Conditions: HEK293 cells that express hERG, probe [3H]dofetilide, read-out: Activity
row,SMILES,inhibition at 25 µM [%]
1,CCc1nn(CCN)c(CC)c1Oc1cc(Cl)cc(C#N)c1,88
2,CCc1nn(CCO)c(CC)c1Oc1cc(C#N)cc(C#N)c1 [LERSIVIRINE],0

# Test system: Human immunodeficiency virus
# Test: Fold resistance, ratio of IC50 for HIV reverse transcriptase with V108I mutant to IC50 for HIV wild type reverse transcriptase
# Conditions: not given
row,SMILES,Ratio IC50
1,CCc1nn(CCN)c(CC)c1Oc1cc(C)cc(C#N)c1,9.3

# Test system: not listed separately
# Test: Metabolic stability in human liver microsomes assessed as half life
# Format: ADME, Microsome
# Conditions: not given
row,SMILES,half-life [h]
1,CCc1nn(CCN)c(CC)c1Oc1cc(Cl)cc(C#N)c1,> 2
2,CCc1n[nH]c(CC)c1Oc1cc(C#N)cc(C#N)c1,> 2
3,CCc1nn(CCN)c(CC)c1Oc1cc(F)cc(C#N)c1,> 2
4,CCc1nn(CCO)c(CC)c1Oc1cc(C#N)cc(C#N)c1 [LERSIVIRINE],1.22
5,CCc1nn(CCN)c(CC)c1Oc1cccc(C#N)c1,> 2
6,CCc1nn(CCO)c(CC)c1Oc1cc(C)cc(C#N)c1,0.283
7,CCc1nn(CCN)c(CC)c1Oc1cc(C)cc(C#N)c1,> 2
8,CCc1nn(CCN)c(CC)c1Oc1cc(C#N)cc(C#N)c1,> 2

# Test system: Human immunodeficiency virus
# Test: Fold resistance, ratio of IC50 for HIV reverse transcriptase with L234I mutant to IC50 for HIV wild type reverse transcriptase
# Conditions: not given
row,SMILES,Ratio IC50
1,CCc1nn(CCN)c(CC)c1Oc1cc(C)cc(C#N)c1,7.5

# Test system: Human immunodeficiency virus
# Test: Fold resistance, ratio of IC50 for HIV reverse transcriptase with V106A mutant to IC50 for HIV wild type reverse transcriptase
# Conditions: not given
row,SMILES,Ratio IC50
1,CCc1nn(CCN)c(CC)c1Oc1cc(C)cc(C#N)c1,3.7

# Test system: Human immunodeficiency virus
# Test: Fold resistance, ratio of IC50 for HIV reverse transcriptase with Y181C mutant to IC50 for HIV wild type reverse transcriptase
# Conditions: not given
row,SMILES,Ratio IC50
1,CCc1nn(CCN)c(CC)c1Oc1cc(C)cc(C#N)c1,2.6

# Test system: Human immunodeficiency virus
# Test: Antiviral activity against HIV RF infected in human SupT1 cells
# Format: functional, organism-based
# Conditions: Human immunodeficiency virus 1, RF, SUP-T1
SMILES,IC50 [nM],IC90 [nM]
CCc1nn(CCN)c(CC)c1Oc1cc(Cl)cc(C#N)c1,8.3,2.4
CCc1n[nH]c(CC)c1Oc1cc(C#N)cc(C#N)c1,17,59
CCc1nn(CCN)c(CC)c1Oc1cc(F)cc(C#N)c1,28,131
CCc1nn(CCO)c(CC)c1Oc1cc(C#N)cc(C#N)c1 [LERSIVIRINE],4,25
CCc1nn(CCO)c(CC)c1Oc1cc(C)cc(C#N)c1,3,3
CCc1nn(CCN)c(CC)c1Oc1cc(C)cc(C#N)c1,0.67,3.5
CCc1nn(CCN)c(CC)c1Oc1cc(C#N)cc(C#N)c1,22,100

# Test system: Human immunodeficiency virus
# Test: Fold resistance, ratio of IC50 for HIV reverse transcriptase with Y188C mutant to IC50 for HIV wild type reverse transcriptase
# Conditions: not given
row,SMILES,Ratio IC50
1,CCc1nn(CCN)c(CC)c1Oc1cc(C)cc(C#N)c1,0.4

# Target: Voltage-gated inwardly rectifying potassium channel KCNH2 (Homo sapiens, UniProt Q12809)
# Test: Displacement of [3H]dofetilide from human ERG expressed in HEK293 cells
# Format: cell-based
# Conditions: not given
# Chain of Voltage-gated inwardly rectifying potassium channel KCNH2 (Q12809 whole entry): as above
row,SMILES,IC50 [nM]
1,CCc1n[nH]c(CC)c1Oc1cc(C#N)cc(C#N)c1,9800

# Test system: Human immunodeficiency virus
# Test: Fold resistance, ratio of IC50 for HIV reverse transcriptase with L100I mutant to IC50 for HIV wild type reverse transcriptase
# Conditions: not given
row,SMILES,Ratio IC50
1,CCc1nn(CCN)c(CC)c1Oc1cc(C)cc(C#N)c1,5.9

# Test system: Human immunodeficiency virus
# Test: Fold resistance, ratio of IC50 for HIV reverse transcriptase with K101E mutant to IC50 for HIV wild type reverse transcriptase
# Conditions: not given
row,SMILES,Ratio IC50
1,CCc1nn(CCN)c(CC)c1Oc1cc(C)cc(C#N)c1,6.2

# Test system: not listed separately
# Test: Volume of distribution in rat at 2 mg/kg, iv
# Format: ADME, organism-based
# Set-up: dose 2 mg/kg, route intravenous
# Conditions: in vivo
row,SMILES,Vd [L/kg]
1,CCc1nn(CCO)c(CC)c1Oc1cc(C#N)cc(C#N)c1 [LERSIVIRINE],1.6

# Target: T1, hERG (KCNH2)
# Test: Displacement of [3H]dofetilide from human ERG expressed in HEK293 cells at 5 uM
# Format: cell-based
# Conditions: HEK293 cells that express hERG, probe [3H]dofetilide, read-out: Activity
row,SMILES,inhibition at 5 µM [%]
1,CCc1nn(CCN)c(CC)c1Oc1cc(C)cc(C#N)c1,52

# Test system: Human immunodeficiency virus
# Test: Fold resistance, ratio of IC50 for HIV reverse transcriptase with K103N mutant to IC50 for HIV wild type reverse transcriptase
# Conditions: not given
row,SMILES,Ratio IC50
1,CCc1nn(CCN)c(CC)c1Oc1cc(C)cc(C#N)c1,2.4

# Target: not listed separately
# Test: Inhibition of HIV reverse transcriptase
# Set-up: species or system Human immunodeficiency virus
# Conditions: not given
row,SMILES,IC50 [nM]
1,CCc1nn(CCN)c(CC)c1Oc1cc(Cl)cc(C#N)c1,43
2,CCc1n[nH]c(CC)c1Oc1cc(C#N)cc(C#N)c1,240
3,CCc1nn(CCN)c(CC)c1Oc1cc(F)cc(C#N)c1,260
4,CCc1nn(CCO)c(CC)c1Oc1cc(C#N)cc(C#N)c1 [LERSIVIRINE],119
5,CCc1nn(CCN)c(CC)c1Oc1cccc(C#N)c1,600
6,CCc1nn(CCO)c(CC)c1Oc1cc(C)cc(C#N)c1,42
7,CCc1nn(CCN)c(CC)c1Oc1cc(C)cc(C#N)c1,40
8,CCc1nn(CCN)c(CC)c1Oc1cc(C#N)cc(C#N)c1,310

# Test system: Human immunodeficiency virus
# Test: Fold resistance, ratio of IC50 for HIV reverse transcriptase with F227L mutant to IC50 for HIV wild type reverse transcriptase
# Conditions: not given
row,SMILES,Ratio IC50
1,CCc1nn(CCN)c(CC)c1Oc1cc(C)cc(C#N)c1,5

# Test system: not listed separately
# Test: Cytotoxicity against human SupT1 cells
# Format: cell-based
# Conditions: sup-t1
row,SMILES,CC30 [nM]
1,CCc1nn(CCN)c(CC)c1Oc1cc(Cl)cc(C#N)c1,30000
2,CCc1n[nH]c(CC)c1Oc1cc(C#N)cc(C#N)c1,> 30000
3,CCc1nn(CCN)c(CC)c1Oc1cc(F)cc(C#N)c1,< 30000
4,CCc1nn(CCO)c(CC)c1Oc1cc(C#N)cc(C#N)c1 [LERSIVIRINE],> 30000
5,CCc1nn(CCO)c(CC)c1Oc1cc(C)cc(C#N)c1,> 30000
6,CCc1nn(CCN)c(CC)c1Oc1cc(C)cc(C#N)c1,> 30000
7,CCc1nn(CCN)c(CC)c1Oc1cc(C#N)cc(C#N)c1,> 30000

# Test system: not listed separately
# Test: Half life in rat at 2 mg/kg, iv
# Format: ADME, organism-based
# Set-up: dose 2 mg/kg, route intravenous
# Conditions: in vivo
row,SMILES,half-life [h]
1,CCc1nn(CCO)c(CC)c1Oc1cc(C#N)cc(C#N)c1 [LERSIVIRINE],1.6

# Target: T1, hERG (KCNH2)
# Test: Displacement of [3H]dofetilide from human ERG expressed in HEK293 cells at 100 uM
# Format: cell-based
# Conditions: HEK293 cells that express hERG, probe [3H]dofetilide, read-out: Activity
row,SMILES,inhibition at 100 µM [%]
1,CCc1nn(CCN)c(CC)c1Oc1cc(C#N)cc(C#N)c1,92
